Data reported in patent EP0118838A2, “New cephem compounds processes for preparation thereof and pharmaceutical compositions containing them” (FUJISAWA PHARMACEUTICAL CO., LTD., priority 1983, dated 1984).

Assays:
Proteus vulgaris 2 = assay: In vitro antibacterial activity, two-fold agar-plate dilution method; format: cell-based; conditions: HI-agar, incubation at 37°C for 20 hours, inoculum 10^8 viable cells per ml
Method: (§1) In vitro antibacterial activity was determined by the two-fold agar-plate dilution method as described below. One loopful of an overnight culture of each test strain in Trypticase-soy broth (10^8 viable cells per ml.) was streaked on heart infusion agar (HI-agar) containing graded concentrations of test compound , and minimal inhibitory concentration (MIC) was expressed in terms of µg/ml after incubation at 37°C for 20 hours.

Proteus mirabilis 18 = assay: as above; format: cell-based; conditions: HI-agar, incubation at 37°C for 20 hours, inoculum 10^8 viable cells per ml
Method: as §1

Compound: Nc1nc(/C(=N/OCC(=O)O)C(=O)NC2C(=O)N3C(C(=O)O)=C(CSc4snc(O)c4C(=O)O)CSC23)ns1 (stereo not drawn) [Test Compound, Sodium 7-[2-(5-amino-1,2,4-thiadiazol-3-yl)-2-carboxymethoxyiminoacetamido]-3-[(4-carboxy-3-hydroxyisothiazol-5-yl)thiomethyl]-3-cephem-4-carboxylate (syn isomer)]
- MIC (Proteus vulgaris 2): < 0.025 µg/mL
- MIC (Proteus mirabilis 18): < 0.025 µg/mL
